How the values were obtained:
[1] = system: MDA-MB-468 (KRAS, NRAS-wt); assay: Anti-proliferation assay on MDA-MB-468; format: cell-based; details: 72 h treatment, average with SD (n = 3, duplicate)
Method: (§1) Ba/F3-parental, OCI-AML3, U397 cells were purchased from DSMZ. MDA-MB-231, HCT-116, AsPC-1, H358, HT-29, SW480, and DU-145 cells were obtained from KCLB. MDA-MB-468 cells were obtained from ATCC. All cells were maintained in RPMI with 10% FBS and antibiotics. Cells were grown in a humidified 5% CO2 incubator at 37°C. Ba/F3-parental cells were grown in the presence of 10 ng/ml IL-3. NRAS-G12D or NRAS-G12V transformed Ba/F3 cell lines (Ba/F3-NRAS-G12D, and Ba/F3-NRAS-G12V, respectively) were cultured without IL-3, which were established by the procedure described as previously ([30]).
(§2) Approximately 3.0 × 10^3 cells/well were seeded in a 96-well cell culture plate. After stabilization, 1/3 serially diluted compound in DMSO was treated to the cell. […] All GI50 values were obtained in duplicate with three independent assays and averages with standard deviation are presented.

SW480 (KRAS-G12V) = assay: Anti-proliferation assay on SW480; format: cell-based; details: 72 h treatment, average with SD (n = 3, duplicate)
Method: as §1, §2

Ba/F3-NRAS-G12D cells = assay: Anti-proliferation assay (CellTiter Glo) on Ba/F3-NRAS-G12D; format: cell-based; details: 72 h treatment, average with SD (n = 3, duplicate)
Method: as §1, §2

H358 (KRAS-G12C) = assay: Anti-proliferation assay on H358; format: cell-based; details: 72 h treatment, average with SD (n = 3, duplicate)
Method: as §1, §2

HT-29 (KRAS-Q61L) = assay: Anti-proliferation assay on HT-29; format: cell-based; details: 72 h treatment, average with SD (n = 3, duplicate)
Method: as §1, §2

OCI-AML3 (NRAS-Q61L) = assay: Anti-proliferation assay on OCI-AML3; format: cell-based, human; details: 72 h treatment, average with SD (n = 3, duplicate)
Method: as §1, §2

Ba/F3-parental cells = assay: Anti-proliferation assay (CellTiter Glo) on Ba/F3-parental; format: cell-based; details: 72 h treatment, with 10 ng/ml IL-3, average with SD (n = 3, duplicate)
Method: as §1, §2

MDA-MB-231 (KRAS-G13D) = assay: Anti-proliferation assay on MDA-MB-231; format: cell-based; details: 72 h treatment, average with SD (n = 3, duplicate)
Method: as §1, §2

HCT-116 (KRAS-G13D) = assay: Anti-proliferation assay on HCT-116; format: cell-based; details: 72 h treatment, average with SD (n = 3, duplicate)
Method: as §1, §2

DU-145 (KRAS-G12V) = assay: Anti-proliferation assay on DU-145; format: cell-based; details: 72 h treatment, average with SD (n = 3, duplicate)
Method: as §1, §2

AsPC-1 (KRAS-G12D) = assay: Anti-proliferation assay on AsPC-1; format: cell-based; details: 72 h treatment, average with SD (n = 3, duplicate)
Method: as §1, §2

U937 (KRAS, NRAS-wt) = assay: Anti-proliferation assay on U937; format: cell-based; details: 72 h treatment, average with SD (n = 3, duplicate)
Method: as §1, §2

Ba/F3-NRAS-G12V cells = assay: Anti-proliferation assay (CellTiter Glo) on Ba/F3-NRAS-G12V; format: cell-based; details: 72 h treatment, average with SD (n = 3, duplicate)
Method: as §1, §2

Row | Structure (SMILES) | GI50 ([1]; Homo sapiens, MDA-MB-468) [nM] | GI50 (SW480 (KRAS-G12V); Homo sapiens, SW480) [nM] | GI50 (Ba/F3-NRAS-G12D cells; Mus musculus, BaF3) [nM] | GI50 (H358 (KRAS-G12C); Homo sapiens, NCI-H358) [nM] | GI50 (HT-29 (KRAS-Q61L); Homo sapiens, HT-29) [nM] | GI50 (OCI-AML3 (NRAS-Q61L); Homo sapiens, OCI-AML-3) [nM] | GI50 (Ba/F3-parental cells; Mus musculus, BaF3) [nM] | GI50 (MDA-MB-231 (KRAS-G13D); Homo sapiens, MDA-MB-231) [nM] | GI50 (HCT-116 (KRAS-G13D); Homo sapiens, HCT-116) [nM] | GI50 (DU-145 (KRAS-G12V); Homo sapiens, DU-145) [nM] | GI50 (AsPC-1 (KRAS-G12D); Homo sapiens, ASPC1) [nM] | GI50 (U937 (KRAS, NRAS-wt); Homo sapiens, U-937) [nM] | GI50 (Ba/F3-NRAS-G12V cells; Mus musculus, BaF3) [nM] | other results
1 | Cc1ccc(Nc2ncc3c(n2)N(C)C(=O)N(c2cc(NC(=O)c4cccc(C(F)(F)F)c4)ccc2C)C3)cn1 [GNF-7, reference compound] |  |  |  |  |  |  |  |  |  |  |  |  |  | GI50 [1]: > 50000 nM; GI50 (SW480 (KRAS-G12V)): 760 ± 63 nM; GI50 (Ba/F3-NRAS-G12D cells): 250 ± 26 nM; GI50 (H358 (KRAS-G12C)): 922 ± 93 nM; GI50 (HT-29 (KRAS-Q61L)): 938 ± 34 nM; GI50 (OCI-AML3 (NRAS-Q61L)): 229 ± 10 nM; GI50 (Ba/F3-parental cells): 923 ± 59 nM; GI50 (MDA-MB-231 (KRAS-G13D)): 296 ± 39 nM; GI50 (HCT-116 (KRAS-G13D)): 169 ± 61 nM; GI50 (DU-145 (KRAS-G12V)): 288 ± 57 nM; GI50 (AsPC-1 (KRAS-G12D)): 448 ± 27 nM; GI50 (U937 (KRAS, NRAS-wt)): 4780 ± 926 nM; GI50 (Ba/F3-NRAS-G12V cells): 396 ± 36 nM
2 | Cc1ccc(NC(=O)c2cccc(C(F)(F)F)c2)cc1N1Cc2cnc(Nc3ccc(N4CCOCC4)cc3)nc2N(C)C1=O [Compound 3, N-(4-Methyl-3-(1-methyl-7-((4-morpholinophenyl)amino)-2-oxo-1,4-dihydropyrimido[4,5-d]pyrimidin-3(2H)-yl)phenyl)-3-(trifluoromethyl)benzamide] | > 50000 | 382 ± 52 | 120 ± 39 | 265 ± 4 | 227 ± 12 | 80 ± 16 | 1060 ± 55 | 49 ± 12 | 18 ± 6 | 30 ± 8 | 136 ± 11 | 2220 ± 163 | 134 ± 45 | 
3 | Cc1ccc(NC(=O)c2cccc(C(F)(F)F)c2)cc1N1Cc2cnc(Nc3ccc(N4CCC(O)CC4)cc3)nc2N(C)C1=O [Compound 2, N-(3-(7-((4-(4-Hydroxypiperidin-1-yl)phenyl)amino)-1-methyl-2-oxo-1,4-dihydropyrimido[4,5-d]pyrimidin-3(2H)-yl)-4-methylphenyl)-3-(trifluoromethyl)benzamide] | 20200 ± 8770 | 293 ± 50 | 116 ± 37 | 201 ± 23 | 143 ± 10 | 101 ± 22 | 827 ± 142 | 90 | 15 ± 9 | 40 ± 20 | 257 ± 129 | 1690 ± 624 | 181 ± 42 | 
4 | Cc1ccc(NC(=O)c2cccc(C(F)(F)F)c2)cc1N1Cc2cnc(NCCCN3CCOCC3)nc2N(C)C1=O [Compound 5, N-(4-Methyl-3-(1-methyl-7-((3-morpholinopropyl)amino)-2-oxo-1,4-dihydropyrimido[4,5-d]pyrimidin-3(2H)-yl)phenyl)-3-(trifluoromethyl)benzamide] | > 50000 | 6440 ± 264 | 457 ± 141 | 5140 ± 368 | 3120 ± 460 | 538 ± 162 | 5730 ± 148 | 1110 ± 127 | 2540 ± 1810 | 1880 ± 125 | 4160 ± 2170 | 4720 ± 488 | 351 ± 34 | 
5 | CCN1CCC(n2cc(Nc3ncc4c(n3)N(C)C(=O)N(c3cc(NC(=O)c5cccc(C(F)(F)F)c5)ccc3C)C4)cn2)CC1 [Compound 13, N-(3-(7-((1-(1-Ethylpiperidin-4-yl)-1H-pyrazol-4-yl)amino)-1-methyl-2-oxo-1,4-dihydropyrimido[4,5-d]pyrimidin-3(2H)-yl)-4-methylphenyl)-3-(trifluoromethyl)benzamide] | 16200 ± 6020 | 269 ± 61 | 114 ± 18 | 147 ± 31 | 164 ± 2 | 36 ± 7 | 889 ± 61 | 55 ± 20 | 77 ± 27 | 76 ± 26 | 186 ± 22 | 690 ± 35 | 130 ± 28 | 
6 | COc1cc(N2CCOCC2)ccc1Nc1ncc2c(n1)N(C)C(=O)N(c1cc(NC(=O)c3cccc(C(F)(F)F)c3)ccc1C)C2 [Compound 7, N-(3-(7-((2-Methoxy-4-morpholinophenyl)amino)-1-methyl-2-oxo-1,4-dihydropyrimido[4,5-d]pyrimidin-3(2H)-yl)-4-methylphenyl)-3-(trifluoromethyl)benzamide] | > 50000 | 1329 ± 5 | 588 ± 72 | 871 ± 141 | 733 ± 1 | 606 ± 68 | 3780 ± 1890 | 620 ± 153 | 480 ± 275 | 388 ± 45 | 1680 ± 589 | 17400 ± 4220 | 429 ± 80 | 
7 | Cc1ccc(NC(=O)c2cccc(C(F)(F)F)c2)cc1N1Cc2cnc(Nc3ccn(C)n3)nc2N(C)C1=O [Compound 11, N-(4-Methyl-3-(1-methyl-7-((1-methyl-1H-pyrazol-3-yl)amino)-2-oxo-1,4-dihydropyrimido[4,5-d]pyrimidin-3(2H)-yl)phenyl)-3-(trifluoromethyl)benzamid] | > 50000 | 286 ± 39 | 185 ± 15 | 240 ± 42 | 355 ± 54 | 103 ± 1 | 1160 ± 330 | 108 ± 26 | 45 ± 16 | 89 ± 47 | 318 ± 10 | 7000 ± 1120 | 259 ± 126 | 
8 | Cc1ccc(Nc2ncc3c(n2)N(C)C(=O)N(c2cc(NC(=O)c4cccc(C(F)(F)F)c4)ccc2C)C3)c(C)n1 [Compound 6, N-(3-(7-((2,6-Dimethylpyridin-3-yl)amino)-1-methyl-2-oxo-1,4-dihydropyrimido[4,5-d]pyrimidin-3(2H)-yl)-4-methylphenyl)-3-(trifluoromethyl)benzamide] | > 50000 | 2050 ± 51 | 569 ± 28 | 2060 ± 1130 | 3250 ± 176 | 374 ± 24 | 1470 ± 317 | 646 ± 68 | 1530 ± 390 | 1170 ± 124 | 3170 ± 244 | 2870 ± 142 | 428 ± 161 | 
9 | COCCn1cc(Nc2ncc3c(n2)N(C)C(=O)N(c2cc(NC(=O)c4cccc(C(F)(F)F)c4)ccc2C)C3)cn1 [Compound 12, N-(3-(7-((1-(2-Methoxyethyl)-1H-pyrazol-4-yl)amino)-1-methyl-2-oxo-1,4-dihydropyrimido[4,5-d]pyrimidin-3(2H)-yl)-4-methylphenyl)-3-(trifluoromethyl)benzamide] | > 50000 | 532 ± 150 | 122 ± 1 | 106 ± 12 | 131 ± 4 | 46 ± 16 | 1160 ± 424 | 71 ± 18 | 66 ± 55 | 34 ± 25 | 275 ± 47 | 934 ± 57 | 216 ± 5 | 
10 | CCN1CCN(c2ccc(Nc3ncc4c(n3)N(C)C(=O)N(c3cc(NC(=O)c5cccc(C(F)(F)F)c5)ccc3C)C4)cc2)CC1 [Compound 4, N-(3-(7-((4-(4-Ethylpiperazin-1-yl)phenyl)amino)-1-methyl-2-oxo-1,4-dihydropyrimido[4,5-d]pyrimidin-3(2H)-yl)-4-methylphenyl)-3-(trifluoromethyl)benzamide] | 26100 ± 7900 | 163 | 230 ± 129 | 236 ± 29 | 126 ± 2 | 44 ± 14 | 857 ± 108 | 83 ± 22 | 25 ± 10 | 32 ± 14 | 135 ± 18 | 1040 ± 225 | 213 ± 53 | 
11 | Cc1ccc(NC(=O)c2cccc(C(F)(F)F)c2)cc1N1Cc2cnc(Nc3ccc(N4CCCCC4)cc3)nc2N(C)C1=O [Compound 1, N-(4-Methyl-3-(1-methyl-2-oxo-7-((4-(piperidin-1-yl)phenyl)amino)-1,4-dihydropyrimido[4,5-d]pyrimidin-3(2H)-yl)phenyl)-3-(trifluoromethyl)benzamide] | > 50000 | 4510 ± 873 | 586 ± 91 | 1380 ± 96 | 1310 ± 54 | 611 ± 65 | > 50000 | 1120 ± 290 | 1240 ± 554 | 1040 ± 400 | 2020 ± 56 | > 50000 |  | 

From PMC8695447, “Novel Small Molecules Capable of Blocking mtRAS-Signaling Pathway” (Frontiers in Oncology, 2021)
